Measurements from paper PMC5880808, “A lever-like transduction pathway for long-distance chemical- and mechano-gating of the mechanosensitive Piezo1 channel” (Nature Communications, 2018).

Legend:
[1] = target: T1, C-terminal extracellular domain (CED; 2214–2457) (Mus musculus, UniProt E2JF22); assay: SPR binding to immobilized purified protein; conditions: without C12E10 detergent
T1 construct: C-terminal extracellular domain (CED; 2214–2457); made in house
T1 sequence (E2JF22 2214-2457): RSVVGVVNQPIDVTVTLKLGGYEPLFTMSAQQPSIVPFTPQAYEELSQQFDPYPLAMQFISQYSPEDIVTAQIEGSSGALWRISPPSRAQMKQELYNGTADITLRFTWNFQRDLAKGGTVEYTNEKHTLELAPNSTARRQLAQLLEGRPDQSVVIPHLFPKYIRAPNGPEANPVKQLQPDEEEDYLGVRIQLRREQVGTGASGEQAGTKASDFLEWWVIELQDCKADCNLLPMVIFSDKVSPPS
Method: (§1) Real-time binding and analysis by SPR were conducted on BIAcore T200 instrument (GE Healthcare) at 25 °C. Proteins were immobilized on a research-grade CM5 sensor chip by amine-coupling methods. During the pH scouting process, 10 mM sodium acetate at various pH including 4.0, 4.5, 5.0, and 5.5 and protein concentrations varying between 10 and 100 μg/ml were screened before immobilization. Except pH 4.5 for mPiezo1-(1–2190), pH 5.0 was used for all other proteins, including mPiezo1, CED, Δ15-16, and Δ19-20. All proteins were diluted to 50 μg/ml in buffer containing 10 mM sodium acetate at the abovementioned pH, 0.026% C12E10 detergent, and 150 mM NaCl, except that the soluble CED proteins, which were diluted in 150 mM NaCl without detergent. During the immobilization process, the CM5 sensor was activated with NHS first, allowing the amine-containing proteins to be coupled to the sensor through NHS. Each CM5 sensor had 4 flow cells, and the flow cells 1 and 3 were often left blank as a reference. Diluted Piezo1 wild-type or mutant proteins (50 μg/ml) in their respective buffers were immobilized on the flow cell 2 or flow cell 4 to the similar level as indicated by the “response bound” parameter.
(§2) For data collection, compounds at various concentrations were diluted in a running buffer containing 1× PBS, 0.026% detergent C12E10, and 0.05% Surfactant P20 (GE Healthcare Bio-Sciences AB) and injected over the flow cells with at a 30 μl/min flow rate. The proteins and the compounds were allowed to associate for 180 s and then dissociate for 180 s. Data were analyzed with the BIAcore T200 evaluation software by fitting to a 1:1 affinity-binding model.

[2] = target: T2, mPiezo1 (Mus musculus, UniProt E2JF22); assay: Whole-cell poking-induced currents; assay type: cell-based; conditions: for effect on poking currents and inactivation: compound applied to the intracellular side; for increase of poking-induced whole-cell currents: mPiezo1-mRuby2-expressing cells, puffing application of 1 mM Jedi, −80 mV
T2 construct: The full-length mPiezo1 has 2547 amino acids in each monomer; expressed in transfected cells; host or cells: HEK293T
T2 sequence (E2JF22 whole entry): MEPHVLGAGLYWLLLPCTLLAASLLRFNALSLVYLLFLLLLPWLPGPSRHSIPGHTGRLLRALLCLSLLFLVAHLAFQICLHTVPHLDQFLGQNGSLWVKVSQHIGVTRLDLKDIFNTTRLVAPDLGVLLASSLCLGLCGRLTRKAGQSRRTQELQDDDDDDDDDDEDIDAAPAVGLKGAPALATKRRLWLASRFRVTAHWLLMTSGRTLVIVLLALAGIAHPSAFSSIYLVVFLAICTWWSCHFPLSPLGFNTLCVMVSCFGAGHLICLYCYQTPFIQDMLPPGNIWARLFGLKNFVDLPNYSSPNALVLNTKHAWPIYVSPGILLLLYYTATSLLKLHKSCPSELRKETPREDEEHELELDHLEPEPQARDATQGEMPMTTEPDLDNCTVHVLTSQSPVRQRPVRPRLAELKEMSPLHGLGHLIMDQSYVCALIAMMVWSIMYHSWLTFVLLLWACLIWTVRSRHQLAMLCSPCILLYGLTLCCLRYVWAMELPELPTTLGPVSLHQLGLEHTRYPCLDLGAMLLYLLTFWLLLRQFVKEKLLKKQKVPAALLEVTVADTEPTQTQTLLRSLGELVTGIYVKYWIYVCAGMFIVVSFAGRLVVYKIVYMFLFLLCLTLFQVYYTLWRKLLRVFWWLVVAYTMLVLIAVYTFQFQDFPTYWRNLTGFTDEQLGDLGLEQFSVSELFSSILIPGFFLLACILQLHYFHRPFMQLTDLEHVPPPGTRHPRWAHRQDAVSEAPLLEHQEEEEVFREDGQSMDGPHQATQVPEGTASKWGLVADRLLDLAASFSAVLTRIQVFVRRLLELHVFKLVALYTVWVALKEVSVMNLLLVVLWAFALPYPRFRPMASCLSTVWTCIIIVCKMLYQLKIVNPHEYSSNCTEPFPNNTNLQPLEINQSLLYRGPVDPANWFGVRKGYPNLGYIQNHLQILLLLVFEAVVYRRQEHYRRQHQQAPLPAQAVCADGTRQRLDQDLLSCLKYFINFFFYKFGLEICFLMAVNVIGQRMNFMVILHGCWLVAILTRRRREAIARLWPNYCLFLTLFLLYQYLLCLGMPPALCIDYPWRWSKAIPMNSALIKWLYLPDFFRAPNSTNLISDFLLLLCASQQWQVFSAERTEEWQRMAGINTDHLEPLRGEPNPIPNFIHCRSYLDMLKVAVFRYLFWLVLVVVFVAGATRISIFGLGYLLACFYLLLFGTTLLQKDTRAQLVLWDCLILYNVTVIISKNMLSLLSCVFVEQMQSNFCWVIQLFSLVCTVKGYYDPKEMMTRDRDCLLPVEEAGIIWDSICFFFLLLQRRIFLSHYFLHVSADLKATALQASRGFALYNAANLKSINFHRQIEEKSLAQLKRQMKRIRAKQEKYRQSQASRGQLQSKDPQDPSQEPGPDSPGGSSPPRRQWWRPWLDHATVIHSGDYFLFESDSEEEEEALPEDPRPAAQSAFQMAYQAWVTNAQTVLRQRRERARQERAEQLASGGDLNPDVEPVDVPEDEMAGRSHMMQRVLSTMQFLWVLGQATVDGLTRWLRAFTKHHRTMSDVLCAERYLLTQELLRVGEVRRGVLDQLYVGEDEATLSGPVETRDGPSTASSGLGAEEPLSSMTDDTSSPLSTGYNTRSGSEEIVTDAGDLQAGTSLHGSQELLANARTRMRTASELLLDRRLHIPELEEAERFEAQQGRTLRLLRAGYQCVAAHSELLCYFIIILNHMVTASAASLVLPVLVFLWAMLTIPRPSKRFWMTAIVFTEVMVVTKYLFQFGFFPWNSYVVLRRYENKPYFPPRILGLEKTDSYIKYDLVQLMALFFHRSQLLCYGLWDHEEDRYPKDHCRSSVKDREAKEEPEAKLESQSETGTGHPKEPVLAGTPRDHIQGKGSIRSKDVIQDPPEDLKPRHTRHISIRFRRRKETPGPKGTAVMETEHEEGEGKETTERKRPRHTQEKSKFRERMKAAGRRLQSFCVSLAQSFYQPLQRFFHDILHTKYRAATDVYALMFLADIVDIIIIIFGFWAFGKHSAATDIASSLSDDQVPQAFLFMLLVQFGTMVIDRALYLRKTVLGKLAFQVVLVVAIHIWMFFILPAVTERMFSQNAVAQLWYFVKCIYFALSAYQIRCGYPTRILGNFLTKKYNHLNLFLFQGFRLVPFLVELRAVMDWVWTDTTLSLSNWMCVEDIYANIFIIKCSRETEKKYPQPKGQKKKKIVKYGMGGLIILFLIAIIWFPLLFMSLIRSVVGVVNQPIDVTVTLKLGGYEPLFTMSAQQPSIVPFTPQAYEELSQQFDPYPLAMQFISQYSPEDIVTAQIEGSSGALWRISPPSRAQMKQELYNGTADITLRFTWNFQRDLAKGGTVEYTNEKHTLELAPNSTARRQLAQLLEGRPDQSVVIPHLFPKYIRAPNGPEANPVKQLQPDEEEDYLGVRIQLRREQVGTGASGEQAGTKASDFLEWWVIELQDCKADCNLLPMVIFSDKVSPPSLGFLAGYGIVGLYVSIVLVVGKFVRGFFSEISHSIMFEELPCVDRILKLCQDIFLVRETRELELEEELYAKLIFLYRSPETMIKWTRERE
Method: Protocols for HEK293T cell culture, transient transfection, and patch-clamp experiments with an Axopatch 200B amplifier (Axon Instruments) or HEKA EPC10 were essentially similar to how previously described[6],[8]. […] The extracellular solution was composed of (in mM) 133 NaCl, 3 KCl, 2.5 CaCl2, 1 MgCl2, 10 HEPES (pH 7.3 with NaOH), and 10 glucose. All experiments were carried out at room temperature. Currents were sampled at 20 kHz, filtered at 2 kHz using the Clampex 10.4 software (Axon Instruments) or Patchmaster software. Leak currents before mechanical stimulations were subtracted offline from the current traces.
Mechanical stimulation was delivered to the cell during the patch-clamp recording at an angle of 80° using a fire-polished glass pipette (tip diameter 3–4 μm) as previously described[5],[6]. Downward movement of the probe toward the cell was driven by a Clampex-controlled piezo-electric crystal micro-stage (E625 LVPZT Controller/Amplifier; Physik Instrument). […] The poking distance shown in Fig. 3 includes the initial distance between the poking pipette and the cell, which cannot be accurately controlled, and the applied poking distance controlled by the Clampex-controlled piezo-electric crystal micro-stage. Thus, the actual poking distance on the cell membrane should be equal to the applied poking distance minus the initial distance between the poking pipette and the cell under recording. In the step-wise poking experiment, the patch was readily lost when the cell was broken at the end of the poking.
Stock solutions of Jedi1 (100 mM), Jedi2 (100 mM), and Yoda1 (30 mM) were solubilized in DMSO and diluted to the desired final concentrations as indicated in the figure legends using external or internal solutions. In Figs. 3a, 5b, and 6e, the compound solutions were puffed onto the cells using a multichannel perfusion system (MPS-2, World Precision Instruments) while continuously recording using a gap-free mode. In other conditions, the compounds were directly added to the recording chamber or pipette solution, and the currents were recorded within 10 min. In Figs. 5b and 6e, we used the Piezo1-KO-HEK cell line in which the endogenous Piezo1 gene is disrupted.

[3] = target: T3, L1342A/L1345A mutant proteins (Mus musculus, UniProt E2JF22, L1342A/L1345A); assay: SPR binding to purified L1342A/L1345A mutant protein
T3 construct: The full-length mPiezo1 has 2547 amino acids in each monomer; GST (PreScission site) (cleaved yes); made in house; host or cells: HEK293T
T3 sequence (E2JF22 whole entry L1342A/L1345A): as the sequence (E2JF22 whole entry) above, with L1342A, L1345A counted along it
Method: as §1, §2

[4] = target: T2, mPiezo1; assay: Fura-2 single-cell Ca2+ imaging of mPiezo1-mCherry-transfected HEK293T cells; assay type: cell-based; conditions: for Ca2+ response (Fura-2 ratio): mCherry-positive HEK293T cells transfected with mPiezo1-mCherry
Method: Fura-2 single-cell Ca^2+ imaging was performed according to the previous protocol. In brief, mCherry-Piezo1 cDNA (1 μg)-transfected HEK293T cells were plated onto 12-mm round glass coverslips, which were coated with poly-D-lysine and placed in 24-well plates, and subject to Fura-2 single-cell Ca^2+ imaging about 36 h post transfection. Cells were washed with buffer containing 1× HBSS (1.3 mM Ca^2+) and 10 mM HEPES (pH 7.2), incubated with 2.5 μM Fura-2 and 0.05% Pluronic F-127 (Life Technologies) for 30 min, then washed again with the previously mentioned buffer. The coverslip was mounted into an inverted Nikon-Tie microscope equipped with a CoolSNAP charge-coupled devise (CCD) camera and Lambda XL light box (Sutter Instrument), and mCherry-positive and -negative cells were selected for measurement of the 340/380 ratio with a ×20 objective (numerical aperture 0.75) using the MetaFluor Fluorescence Ratio Imaging software (Molecular Device).

[5] = compound applied to the extracellular side

| SMILES | binding to purified CED proteins (SPR) [1] | inactivation tau of poking-induced currents [2, 5] | poking-induced maximal currents (Imax) [2, 5] | effect on poking currents and inactivation [2] | increase of poking-induced whole-cell currents [2] | binding to purified L1342A/L1345A mutant proteins (SPR) [3] | Ca2+ response (Fura-2 ratio) [4] | time course of the induced Ca2+ response ([4]; Fura-2 single-cell imaging) |
| --- | --- | --- | --- | --- | --- | --- | --- | --- |
| Cc1oc(-c2ccccc2)cc1C(=O)O [Jedi1] | none | slowed the inactivation tau | significantly enhanced | had no effect | 3.8 ± 0.5 folds | retained the ability to bind | caused an increase in Ca^2+ |  |
| Clc1cccc(Cl)c1CSc1nnc(-c2cnccn2)s1 [Yoda1, reference compound] | none |  |  | remained effective in enhancing the poking currents and slowing the inactivation |  | retained the ability to bind | also responded to Yoda1 | slow activation, no decay, and poor reversibility |
| Cc1oc(-c2cccs2)cc1C(=O)O [Jedi2] | none |  |  |  | 5.4 ± 0.7 folds | retained the ability to bind | caused an increase in Ca^2+ |  |
